# In patent publication EP1399176B1, “SUBSTANTIALLY PURE GLYCOPEPTIDE ANTIBIOTICS AC-98-1; AC-98-2; AC-98-3; AC-98-4 AND AC-98-5” (Wyeth Holdings Corporation, priority 2001, dated 2002):
# Numbered stars: 1 amine (or outer) side, 2 acyl side, 3 side chain; on linkers, the order of the positions; unused ones are H or OH. Square brackets hold non-standard residues; d marks the D form. Peptide text beside a SMILES is read from it. * marks the point of attachment. ξ: configuration not given here. X1 = N=C1NCC(C(O)C(N[*:1])C(=O)[*:2])N1C1OC(CO)C(O)C(O)C1O; ξEnduracididine(βξ-OH,4'ξ) = N=C1NCC(C(O)C(N)C(=O)O)N1; X2 = OCC1OC(OC2C(CO)OC(*)C(O)C2O)C(O)C(O)C1O; ξPhe(βξ-Me) = CC(c1ccccc1)C(N)C(=O)O
# Columns and labels:
# Assay in all cases: in vitro antibacterial activity, agar dilution method (MIC)
# Type in all cases: cell-based
# Set-up in all cases: unit not given here
# Details in all cases: Mueller-Hinton agar containing 5% sheep blood, 18 hours incubation
# [1] = test system: Enterococcus faecalis (ATCC 29212)
# Procedure: (§1) The in vitro antibacterial activity of substantially pure glycopeptide antibiotics AC-98-1, AC-98-2, AC-98-3, AC-98-4, and AC-98-5 from Examples 2 and 3 is determined against a spectrum of bacteria by a standard agar dilution method. Mueller-Hinton agar containing 5% sheep blood and two-fold decreasing concentrations of substantially pure glycopeptide antibiotics AC-98-1, AC-98-2, AC-98-3, AC-98-4, and AC-98-5 from Examples 2 and 3 are poured into petri dishes. The agar surfaces are inoculated with 1 to 5 X 10^4 colony forming units of bacteria by means of a Steers replicating device. The lowest concentration of antibiotic that inhibited the growth of a bacterial strain after 18 hours incubation is recorded as the minimal inhibitory concentration for that strain. Table II. In vitro antibacterial activity of substantially pure antibiotics AC-98-1, AC-98-2, AC-98-3, AC-98-4, and AC-98-5 from Examples 2 and 3
# [2] = test system: Pseudomonas aeruginosa (ATCC 27853)
# Procedure: as §1
# [3] = test system: Staphylococcus aureus (SMITH)
# Procedure: as §1
# [4] = test system: Staphylococcus aureus (ID-4379)
# Procedure: as §1
# [5] = test system: Enterococcus faecium (12202)
# Procedure: as §1
# [6] = test system: Staphylococcus aureus (NEMC-89-4)
# Procedure: as §1
# [7] = test system: Bacillus subtilis (Bacto)
# Procedure: as §1
# [8] = test system: Staphylococcus aureus (ATCC 29213)
# Procedure: as §1
# [9] = test system: Enterococcus faecalis (ID-1829)
# Procedure: as §1
# [10] = test system: Staph Coagulase Neg (ID-3276)
# Procedure: as §1
# [11] = test system: Morganella morganii (VGH 84-11)
# Procedure: as §1
# [12] = test system: Enterococcus faecium (ID-4133)
# Procedure: as §1
# [13] = test system: Enterococcus faecium (ID-3953)
# Procedure: as §1
# [14] = test system: Staphylococcus aureus (ID-2371)
# Procedure: as §1
# [15] = test system: Enterococcus faecium (ID-3301)
# Procedure: as §1
# [16] = test system: Staphylococcus aureus (ID-2727)
# Procedure: as §1
# [17] = test system: Staphylococcus hemolyticus (ID-4061)
# Procedure: as §1
# [18] = test system: Staphylococcus aureus (ID-3105)
# Procedure: as §1
# [19] = test system: Enterococcus faecalis (ID-2131)
# Procedure: as §1
# [20] = test system: Staph Coagulase Neg (4615)
# Procedure: as §1
# Escherichia coli (J2175) = test system: Escherichia coli (J2175)
# Procedure: as §1
MIC [1],MIC [2],MIC [5],MIC [7],MIC [9],MIC [11],MIC [13],MIC [14],MIC [15],MIC [19],MIC [20],Structure (SMILES),also measured
,>128,,,,>128,,,,128,,CC(C)CC(=O)OC1C(OC2C(CO)OC(Oc3ccc(CC4NC(=O)C(C(C)c5ccccc5)NC(=O)CNC(=O)C(CO)NC(=O)C(C(O)C5CNC(=N)N5C5OC(CO)C(O)C(O)C5O)NC(=O)C(C(O)C5CNC(=N)N5)NC4=O)cc3)C(O)C2O)OC(CO)C(O)C1O (stereo not drawn) [AC-98-3],
,>128,,,,>128,,,,,,CC(C)CC(=O)OC1C(CO)OC(OC2C(CO)OC(Oc3ccc(CC4NC(=O)C(C(C)c5ccccc5)NC(=O)CNC(=O)C(CO)NC(=O)C(C(O)C5CNC(=N)N5C5OC(CO)C(O)C(O)C5O)NC(=O)C(C(O)C5CNC(=N)N5)NC4=O)cc3)C(O)C2O)C(O)C1O (stereo not drawn) [AC-98-5],

# More lines, now with the values behind:
Structure (SMILES),MIC [1],MIC [2],MIC [5],MIC [7],MIC [9],MIC [11],MIC [13],MIC [14],MIC [15],MIC [19],MIC [20],also measured
"CC(c1ccccc1)C1NC(=O)CNC(=O)C(CO)NC(=O)C(C(O)C2CNC(=N)N2C2OC(CO)C(O)C(O)C2O)NC(=O)C(C(O)C2CNC(=N)N2)NC(=O)C(Cc2ccc(OC3OC(CO)C(OC4OC(CO)C(O)C(O)C4O)C(O)C3O)cc2)NC1=O (stereo not drawn) [AC-98-1] (cyclo(G[ξPhe(βξ-Me)]Y(X2)[ξEnduracididine(βξ-OH,4'ξ)][X1]S); configuration not given here)",>128,>128,>128,>128,>128,>128,>128,>128,>128,>128,>128,MIC [3]: 128; MIC [4]: 128; MIC [6]: >128; MIC [8]: 128; MIC [10]: 128; MIC [12]: 128; MIC [16]: >128; MIC [17]: 128; MIC [18]: 128
"CC(c1ccccc1)C1NC(=O)CNC(=O)C(CO)NC(=O)C(C(O)C2CNC(=N)N2C2OC(CO)C(O)C(O)C2O)NC(=O)C(C(O)C2CNC(=N)N2)NC(=O)C(Cc2ccc(O)cc2)NC1=O (stereo not drawn) [AC-98-2] (cyclo(G[ξPhe(βξ-Me)]Y[ξEnduracididine(βξ-OH,4'ξ)][X1]S); configuration not given here)",>128,>128,128,>128,128,>128,128,128,>128,>128,128,
CC(C)CC(=O)OC1C(O)C(CO)OC(OC2C(CO)OC(Oc3ccc(CC4NC(=O)C(C(C)c5ccccc5)NC(=O)CNC(=O)C(CO)NC(=O)C(C(O)C5CNC(=N)N5C5OC(CO)C(O)C(O)C5O)NC(=O)C(C(O)C5CNC(=N)N5)NC4=O)cc3)C(O)C2O)C1O (stereo not drawn) [AC-98-4],,>128,,,,>128,,,,,,MIC (Escherichia coli (J2175)): 128
